Where “and” joins values, the source holds several entries; their conditions need not be identical. Identical values can stand only once.
Test system: procollagen-I synthesis in human dermal fibroblasts
Test: Dot blot assay for procollagen-I protein in dermal fibroblast conditioned medium
Format: cell-based
Conditions: 24 hours, primary human foreskin fibroblasts, relative to vehicle treated control value of 100
Experimental: Primary human foreskin fibroblasts at passage 2 (P2) were seeded into 12-well plates at 10000 cells/cm^2 and maintained for 24 hours in an atmosphere of 5% carbon dioxide and 4% oxygen in Dulbeccos Modified Eagles Medium (DMEM) supplemented with 10% foetal calf serum. After this time the cells were washed with serum free DMEM and then incubated in fresh serum free DMEM for a further 60 hours. The fibroblast monolayers were then washed again with serum free DMEM. Test reagents and vehicle controls were added to the cells in triplicate in a final volume of 0.4 ml/well fresh serum free DMEM and incubated for a further 24 hours.
This fibroblast conditioned medium was either analysed immediately or snap frozen in liquid nitrogen and stored at −70° C. for future analysis. The cells were then counted and data from the dot-blot analysis subsequently standardised to cell number.
Samples of conditioned medium from dermal fibroblasts treated with vehicle (as a control) or test reagents were supplemented with 20 mM dithiothreitol (1:10 dilution of 200 mM stock solution) and 0.1% sodium dodecylsulphate (1:100 dilution of 10% stock solution), mixed well and then incubated at 75° C. for 2 minutes.
A standard for the assay was generated by serial dilution of neat fibroblast conditioned medium from fibroblasts seeded at 10000 cells/cm^2 in a 175 cm^2 flask and maintained in serum free DMEM as described above. Assay samples were subsequently applied in triplicate to a prewetted sheet of Immobilon-P transfer membrane using the 96-well Bio-Dot Apparatus from Bio-Rad as described in the manufacturers guidelines. Approximately 200 μl of medium was applied per well. The medium was allowed to filter through the membrane under gravity (30 minutes) after which the membrane was washed twice with PBS (200 μl). These PBS washes were allowed to filter through the membrane under gravity (2×15 minutes).
The Bio-Dot apparatus was then attached to a vacuum manifold and a third and final PBS wash carried out under suction. The apparatus was disassembled, the membrane removed and quickly cut as required before being placed in blocking buffer overnight at 4° C. Membranes prepared for procollagen-I analysis were blocked with 5% (w/v) non-fat dried milk powder/0.05% Tween 20 in PBS. The following day, the membranes were probed with 1:10000 dilution of primary antibodies to human procollagen-I (MAB1912; rat monoclonal; Chemicon Int. Inc., Temecula, Calif.) for 2 hours at room temperature. The membranes were subsequently washed with TBS/0.05% Tween 20 (3×5 minutes) and then incubated with 1:1000 dilution of ^125I-conjugated anti-rat fragments (Amersham) as required for 1 hour at room temperature. Following this the Immobilon strips were again washed with TBS/Tween 20 (3×5 minutes) before being allowed to dry in air at room temperature.
The dried membranes were wrapped in cellophane and exposed to a Molecular Dynamics storage phosphor screen for 16-18 hours. […] Dot intensity was assessed by computer-assisted image analysis using the quantification tools in ImageQuant™, standardised to cell number and the effects of various test reagents procollagen-I synthesis were determined relative to a vehicle treated control value of 100 arbitrary units.
In order to normalise the results the effects of the test substances were determined relative to a vehicle treated control value of 100 arbitrary units. […]

Molecule `CC/C=C\C/C=C\C/C=C\C/C=C\C/C=C\C/C=C\CCC(=O)O` [DHA, Docosahexaenoic acid] has a Procollagen-I (10 μM) of 105.1 arbitrary units.

`CCCCCCCCCCC/C=C\CCCCC(=O)O` [PA, Petroselinic acid] showed a Procollagen-I (1 μM) of 87.6 arbitrary units.

With `CCCCC/C=C\C/C=C\CCCCCCCC(=O)O` [linoleic acid] the Procollagen-I (1 μM) was 99.3 arbitrary units and the Procollagen-I (10 μM) was 111.8 arbitrary units and 110.3 arbitrary units.

`CCCCCCCC/C=C\CCCCCCCC(=O)O` [oleic acid, reference compound] showed a Procollagen-I (10 μM) of 102.6 arbitrary units.
